From the OligoGym collection
Bases are written 5' to 3'; sugars and linkages follow in the same order, as letters with counts (s phosphorothioate, o phosphodiester; PS: all linkages phosphorothioate). C may stand for cytosine or 5-methylcytosine; the collection does not tell. l = locked nucleic acid (LNA); d = 2'-deoxy (DNA)

Target: HIF1A
Assay: HeLa, 100 nM transfected, 24 h, mean of 3
Settings: ASO

Row | Sequence | caspase activation (% of PBS control)
1 | TGGCAAGCATCCTGTA (sugars ldlddddddddllldl, PS) | 254
2 | TGGCAAGCATCCTGTA (sugars ldldlddddddddddl, PS) | 204
3 | TGGCAAGCATCCTGTA (sugars ldldldddddddddll, PS) | 210
4 | TGGCAAGCATCCTGTA (sugars ldldlddddddddldl, PS) | 176
5 | TGGCAAGCATCCTGTA (sugars ldldlddddddddlll, PS) | 277
6 | TGGCAAGCATCCTGTA (sugars ldldldddddddlddl, PS) | 226
7 | TGGCAAGCATCCTGTA (sugars ldldldddddddldll, PS) | 290
8 | TGGCAAGCATCCTGTA (sugars ldldldddddddlldl, PS) | 218
9 | TGGCAAGCATCCTGTA (sugars ldldldddddddllll, PS) | 309
10 | TGGCAAGCATCCTGTA (sugars ldldlddddddldddl, PS) | 179
11 | TGGCAAGCATCCTGTA (sugars ldldlddddddlddll, PS) | 178
12 | TGGCAAGCATCCTGTA (sugars ldldlddddddldldl, PS) | 175
13 | TGGCAAGCATCCTGTA (sugars ldldlddddddldlll, PS) | 309
14 | TGGCAAGCATCCTGTA (sugars ldldlddddddllddl, PS) | 219
15 | TGGCAAGCATCCTGTA (sugars ldldlddddddlldll, PS) | 263
16 | TGGCAAGCATCCTGTA (sugars ldldlddddddllldl, PS) | 261
17 | TGGCAAGCATCCTGTA (sugars ldldlddddddlllll, PS) | 342
18 | TGGCAAGCATCCTGTA (sugars ldlldddddddddldl, PS) | 297
19 | TGGCAAGCATCCTGTA (sugars ldllddddddddlddl, PS) | 438
20 | TGGCAAGCATCCTGTA (sugars ldllddddddddldll, PS) | 466
21 | TGGCAAGCATCCTGTA (sugars ldllddddddddlldl, PS) | 412
22 | TGGCAAGCATCCTGTA (sugars ldlldddddddldddl, PS) | 229
23 | TGGCAAGCATCCTGTA (sugars ldlldddddddlddll, PS) | 306
24 | TGGCAAGCATCCTGTA (sugars ldlldddddddldldl, PS) | 400

Row | Sequence | caspase activation (% of PBS control)
25 | TGGCAAGCATCCTGTA (sugars ldlldddddddldlll, PS) | 435
26 | TGGCAAGCATCCTGTA (sugars ldlldddddddllddl, PS) | 360
27 | TGGCAAGCATCCTGTA (sugars ldlldddddddlldll, PS) | 381
28 | TGGCAAGCATCCTGTA (sugars ldlldddddddllldl, PS) | 438
29 | TGGCAAGCATCCTGTA (sugars ldlllddddddddldl, PS) | 448
30 | TGGCAAGCATCCTGTA (sugars ldllldddddddlddl, PS) | 419
31 | TGGCAAGCATCCTGTA (sugars ldllldddddddldll, PS) | 459
32 | TGGCAAGCATCCTGTA (sugars ldllldddddddlldl, PS) | 440
33 | TGGCAAGCATCCTGTA (sugars ldlllddddddldddl, PS) | 417
34 | TGGCAAGCATCCTGTA (sugars ldlllddddddlddll, PS) | 410
35 | TGGCAAGCATCCTGTA (sugars ldlllddddddldldl, PS) | 455
36 | TGGCAAGCATCCTGTA (sugars ldlllddddddldlll, PS) | 476
37 | TGGCAAGCATCCTGTA (sugars ldlllddddddllddl, PS) | 495
38 | TGGCAAGCATCCTGTA (sugars ldlllddddddlldll, PS) | 437
39 | TGGCAAGCATCCTGTA (sugars ldlllddddddllldl, PS) | 490
40 | TGGCAAGCATCCTGTA (sugars lldddddddddldldl, PS) | 423
41 | TGGCAAGCATCCTGTA (sugars llddlddddddddldl, PS) | 215
42 | TGGCAAGCATCCTGTA (sugars llddldddddddlddl, PS) | 354
43 | TGGCAAGCATCCTGTA (sugars llddldddddddldll, PS) | 401
44 | TGGCAAGCATCCTGTA (sugars llddldddddddlldl, PS) | 341
45 | TGGCAAGCATCCTGTA (sugars llddlddddddldddl, PS) | 383
46 | TGGCAAGCATCCTGTA (sugars llddlddddddlddll, PS) | 455
47 | TGGCAAGCATCCTGTA (sugars llddlddddddldldl, PS) | 390
48 | TGGCAAGCATCCTGTA (sugars llddlddddddldlll, PS) | 425

Row | Sequence | caspase activation (% of PBS control)
49 | TGGCAAGCATCCTGTA (sugars llddlddddddllddl, PS) | 385
50 | TGGCAAGCATCCTGTA (sugars llddlddddddlldll, PS) | 446
51 | TGGCAAGCATCCTGTA (sugars llddlddddddllldl, PS) | 397
52 | TGGCAAGCATCCTGTA (sugars lldldddddddddldl, PS) | 522
53 | TGGCAAGCATCCTGTA (sugars lldlddddddddlddl, PS) | 604
54 | TGGCAAGCATCCTGTA (sugars lldlddddddddldll, PS) | 502
55 | TGGCAAGCATCCTGTA (sugars lldlddddddddlldl, PS) | 461
56 | TGGCAAGCATCCTGTA (sugars lldldddddddldddl, PS) | 322
57 | TGGCAAGCATCCTGTA (sugars lldldddddddlddll, PS) | 460
58 | TGGCAAGCATCCTGTA (sugars lldldddddddldldl, PS) | 429
59 | TGGCAAGCATCCTGTA (sugars lldldddddddldlll, PS) | 423
60 | TGGCAAGCATCCTGTA (sugars lldldddddddllddl, PS) | 309
61 | TGGCAAGCATCCTGTA (sugars lldldddddddlldll, PS) | 410
62 | TGGCAAGCATCCTGTA (sugars lldldddddddllldl, PS) | 419
63 | TGGCAAGCATCCTGTA (sugars lldllddddddddldl, PS) | 418
64 | TGGCAAGCATCCTGTA (sugars lldlldddddddlddl, PS) | 459
65 | TGGCAAGCATCCTGTA (sugars lldlldddddddldll, PS) | 454
66 | TGGCAAGCATCCTGTA (sugars lldlldddddddlldl, PS) | 362
67 | TGGCAAGCATCCTGTA (sugars lldllddddddldddl, PS) | 385
68 | TGGCAAGCATCCTGTA (sugars lldllddddddlddll, PS) | 475
69 | TGGCAAGCATCCTGTA (sugars lldllddddddldldl, PS) | 483
70 | TGGCAAGCATCCTGTA (sugars lldllddddddldlll, PS) | 438
71 | TGGCAAGCATCCTGTA (sugars lldllddddddllddl, PS) | 354
72 | TGGCAAGCATCCTGTA (sugars lldllddddddlldll, PS) | 493

Row | Sequence | caspase activation (% of PBS control)
73 | TGGCAAGCATCCTGTA (sugars lldllddddddllldl, PS) | 474
74 | TGGCAAGCATCCTGTA (sugars lllddddddddldldl, PS) | 385
75 | TGGCAAGCATCCTGTA (sugars llldlddddddddldl, PS) | 350
76 | TGGCAAGCATCCTGTA (sugars llldldddddddlddl, PS) | 341
77 | TGGCAAGCATCCTGTA (sugars llldldddddddldll, PS) | 367
78 | TGGCAAGCATCCTGTA (sugars llldldddddddlldl, PS) | 367
79 | TGGCAAGCATCCTGTA (sugars llldlddddddldddl, PS) | 253
80 | TGGCAAGCATCCTGTA (sugars llldlddddddlddll, PS) | 348
81 | TGGCAAGCATCCTGTA (sugars llldlddddddldldl, PS) | 350
82 | TGGCAAGCATCCTGTA (sugars llldlddddddldlll, PS) | 428
83 | TGGCAAGCATCCTGTA (sugars llldlddddddllddl, PS) | 268
84 | TGGCAAGCATCCTGTA (sugars llldlddddddlldll, PS) | 458
85 | TGGCAAGCATCCTGTA (sugars llldlddddddllldl, PS) | 413
86 | TGGCAAGCATCCTGTA (sugars lllldddddddldldl, PS) | 372
87 | TGGCAAGCATCCTGTA (sugars lllllddddddldldl, PS) | 373
88 | TTACTGCCTTCTT (sugars l1 d1 l1 d7 l3, PS) | 183
89 | TTACTGCCTTCTT (sugars l1 d1 l1 d8 l2, PS) | 146
90 | TTACTGCCTTCTT (sugars l1 d1 l1 d9 l1, PS) | 117
91 | TTACTGCCTTCTT (sugars l1 d1 l2 d6 l3, PS) | 237
92 | TTACTGCCTTCTT (sugars l1 d1 l2 d7 l2, PS) | 165
93 | TTACTGCCTTCTT (sugars l1 d1 l2 d8 l1, PS) | 153
94 | TTACTGCCTTCTT (sugars l1 d2 l1 d6 l3, PS) | 131
95 | TTACTGCCTTCTT (sugars l1 d2 l1 d7 l2, PS) | 126
96 | TTACTGCCTTCTT (sugars l1 d2 l1 d8 l1, PS) | 105
